Experimental data as given in ChEMBL document CHEMBL5291721, “A preclinical secondary pharmacology resource illuminates target-adverse drug reaction associations of marketed drugs” (Nat Commun, 2023).

Key:
[1] = molecular target: T1, Adenosine receptor A1 (Homo sapiens, UniProt P30542)
T1 sequence (P30542 whole entry): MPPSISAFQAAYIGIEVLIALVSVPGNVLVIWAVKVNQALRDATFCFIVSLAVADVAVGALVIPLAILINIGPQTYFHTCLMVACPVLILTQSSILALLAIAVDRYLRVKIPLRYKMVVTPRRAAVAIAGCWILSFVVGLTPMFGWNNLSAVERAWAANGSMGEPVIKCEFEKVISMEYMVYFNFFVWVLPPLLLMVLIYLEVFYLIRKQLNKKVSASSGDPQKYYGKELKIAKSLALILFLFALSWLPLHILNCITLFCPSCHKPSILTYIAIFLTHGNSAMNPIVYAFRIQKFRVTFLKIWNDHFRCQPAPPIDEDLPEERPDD

[2] = molecular target: T2, B1 bradykinin receptor (Homo sapiens, UniProt P46663)
T2 sequence (P46663 whole entry): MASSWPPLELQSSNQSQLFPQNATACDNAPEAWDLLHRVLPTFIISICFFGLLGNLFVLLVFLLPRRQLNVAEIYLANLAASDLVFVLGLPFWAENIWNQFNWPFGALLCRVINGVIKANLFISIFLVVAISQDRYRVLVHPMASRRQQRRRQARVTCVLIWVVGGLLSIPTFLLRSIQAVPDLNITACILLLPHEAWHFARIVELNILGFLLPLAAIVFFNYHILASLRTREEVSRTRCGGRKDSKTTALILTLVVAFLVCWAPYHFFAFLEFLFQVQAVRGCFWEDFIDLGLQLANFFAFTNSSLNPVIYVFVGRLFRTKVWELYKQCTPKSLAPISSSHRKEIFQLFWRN

[3] = molecular target: T3, Endothelin receptor type B (Homo sapiens, UniProt P24530)
T3 sequence (P24530 whole entry): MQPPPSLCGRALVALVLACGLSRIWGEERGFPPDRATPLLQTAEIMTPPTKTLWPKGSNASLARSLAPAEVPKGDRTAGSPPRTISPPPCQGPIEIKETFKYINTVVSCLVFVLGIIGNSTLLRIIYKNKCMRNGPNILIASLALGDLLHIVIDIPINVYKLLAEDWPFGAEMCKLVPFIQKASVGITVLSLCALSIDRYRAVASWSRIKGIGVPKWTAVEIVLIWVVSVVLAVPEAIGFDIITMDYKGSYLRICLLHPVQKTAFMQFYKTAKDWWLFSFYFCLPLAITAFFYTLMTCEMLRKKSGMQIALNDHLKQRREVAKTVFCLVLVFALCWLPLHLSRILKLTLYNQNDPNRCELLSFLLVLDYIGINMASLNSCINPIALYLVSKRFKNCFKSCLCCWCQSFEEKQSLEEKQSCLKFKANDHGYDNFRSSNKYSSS

[4] = molecular target: T4, Estrogen receptor (Homo sapiens, UniProt P03372)
T4 sequence (P03372 whole entry): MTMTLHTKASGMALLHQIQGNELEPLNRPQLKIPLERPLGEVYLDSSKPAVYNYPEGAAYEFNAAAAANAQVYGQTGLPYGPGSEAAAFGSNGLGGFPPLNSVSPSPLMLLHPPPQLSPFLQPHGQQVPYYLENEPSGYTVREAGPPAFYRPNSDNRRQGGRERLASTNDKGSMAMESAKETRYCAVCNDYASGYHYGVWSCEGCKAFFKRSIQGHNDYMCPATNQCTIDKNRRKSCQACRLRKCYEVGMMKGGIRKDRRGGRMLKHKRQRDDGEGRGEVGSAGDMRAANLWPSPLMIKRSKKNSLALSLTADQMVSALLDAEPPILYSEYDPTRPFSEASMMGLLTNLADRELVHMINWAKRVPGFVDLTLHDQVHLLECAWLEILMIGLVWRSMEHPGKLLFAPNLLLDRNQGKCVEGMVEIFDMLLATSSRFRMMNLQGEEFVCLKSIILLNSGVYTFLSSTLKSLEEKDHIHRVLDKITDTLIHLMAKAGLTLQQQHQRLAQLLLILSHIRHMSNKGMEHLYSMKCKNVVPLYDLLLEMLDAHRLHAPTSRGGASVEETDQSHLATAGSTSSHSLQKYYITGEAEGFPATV

[5] = molecular target: Glucagon receptor (Homo sapiens, UniProt P47871)
[6] = molecular target: Histamine H1 receptor (Homo sapiens, UniProt P35367)
[7] = molecular target: T5, 5-hydroxytryptamine receptor 1A (Homo sapiens, UniProt P08908)
T5 sequence (P08908 whole entry): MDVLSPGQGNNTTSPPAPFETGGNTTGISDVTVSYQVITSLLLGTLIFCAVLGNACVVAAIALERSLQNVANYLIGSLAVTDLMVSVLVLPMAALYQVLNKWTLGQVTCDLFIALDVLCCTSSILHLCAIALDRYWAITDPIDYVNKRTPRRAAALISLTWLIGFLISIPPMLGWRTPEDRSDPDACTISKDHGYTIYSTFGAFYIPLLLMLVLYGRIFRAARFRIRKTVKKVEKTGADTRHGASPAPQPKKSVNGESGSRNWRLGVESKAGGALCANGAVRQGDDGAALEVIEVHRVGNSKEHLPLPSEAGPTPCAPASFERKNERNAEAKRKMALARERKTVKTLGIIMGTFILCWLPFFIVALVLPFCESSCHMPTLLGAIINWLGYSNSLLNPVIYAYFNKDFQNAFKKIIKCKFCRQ

[8] = molecular target: T6, Muscarinic acetylcholine receptor M2 (Homo sapiens, UniProt P08172)
T6 sequence (P08172 whole entry): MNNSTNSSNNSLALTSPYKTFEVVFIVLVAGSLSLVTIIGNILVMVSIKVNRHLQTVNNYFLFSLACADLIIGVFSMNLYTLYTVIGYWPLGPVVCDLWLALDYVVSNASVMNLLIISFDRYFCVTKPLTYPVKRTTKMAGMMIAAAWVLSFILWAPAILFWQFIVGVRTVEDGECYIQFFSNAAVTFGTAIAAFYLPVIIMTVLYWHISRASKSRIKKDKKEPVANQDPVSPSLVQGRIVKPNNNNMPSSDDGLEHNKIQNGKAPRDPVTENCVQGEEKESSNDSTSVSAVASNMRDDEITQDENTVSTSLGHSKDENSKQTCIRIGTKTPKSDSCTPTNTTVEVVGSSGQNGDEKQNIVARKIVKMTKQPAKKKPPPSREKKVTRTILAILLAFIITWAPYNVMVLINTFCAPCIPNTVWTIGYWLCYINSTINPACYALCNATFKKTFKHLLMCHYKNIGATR
Note: assay procedure not described here.

Sequence of Glucagon receptor (P47871 whole entry): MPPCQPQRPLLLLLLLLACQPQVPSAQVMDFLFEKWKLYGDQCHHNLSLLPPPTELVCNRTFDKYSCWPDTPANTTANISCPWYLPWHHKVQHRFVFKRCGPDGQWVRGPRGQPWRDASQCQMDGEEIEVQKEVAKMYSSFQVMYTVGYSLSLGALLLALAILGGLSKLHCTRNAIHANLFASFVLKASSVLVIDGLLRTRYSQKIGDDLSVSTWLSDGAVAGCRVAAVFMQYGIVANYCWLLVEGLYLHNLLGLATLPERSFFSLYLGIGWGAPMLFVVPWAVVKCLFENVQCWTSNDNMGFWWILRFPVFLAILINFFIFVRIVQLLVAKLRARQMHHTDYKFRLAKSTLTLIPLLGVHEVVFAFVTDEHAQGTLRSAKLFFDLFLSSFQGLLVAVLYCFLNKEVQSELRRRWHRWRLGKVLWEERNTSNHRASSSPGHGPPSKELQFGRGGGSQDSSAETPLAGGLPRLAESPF
Sequence of Histamine H1 receptor (P35367 whole entry): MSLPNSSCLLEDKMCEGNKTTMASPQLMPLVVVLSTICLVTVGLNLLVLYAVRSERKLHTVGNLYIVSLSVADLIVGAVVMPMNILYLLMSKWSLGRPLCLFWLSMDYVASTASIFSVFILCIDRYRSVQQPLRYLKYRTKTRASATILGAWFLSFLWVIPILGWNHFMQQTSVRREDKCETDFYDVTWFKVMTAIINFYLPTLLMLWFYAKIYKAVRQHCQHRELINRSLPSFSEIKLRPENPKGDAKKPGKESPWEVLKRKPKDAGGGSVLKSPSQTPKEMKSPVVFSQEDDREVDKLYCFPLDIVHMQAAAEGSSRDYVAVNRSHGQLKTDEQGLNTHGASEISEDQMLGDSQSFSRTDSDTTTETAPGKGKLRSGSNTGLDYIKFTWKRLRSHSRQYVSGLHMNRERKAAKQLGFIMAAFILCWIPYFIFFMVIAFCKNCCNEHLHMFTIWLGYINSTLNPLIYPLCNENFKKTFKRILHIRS

## CCCN(CCC)C(=O)Cc1c(-c2ccc(Cl)cc2)nc2ccc(Cl)cn12 [ALPIDEM]
[1]
  AC50: 14.4 µM
[2]
  AC50: > 10 µM
[3]
  AC50: > 10 µM
[4]
  AC50: > 30 µM
[5]
  AC50: > 10 µM
[6]
  AC50: > 30 µM
[7]
  AC50: > 10 µM
[8]
  AC50: > 10 µM

## C#C[C@]1(O)CC[C@H]2[C@@H]3CCC4=CC(=O)CC[C@@H]4[C@H]3C(=C)C[C@@]21CC [ETONOGESTREL]
[1]
  AC50: > 30 µM
[6]
  AC50: > 30 µM

## CN(CC1(C)CCCO1)S(=O)(=O)c1ccc(Cl)c(S(N)(=O)=O)c1 (centres undefined) [MEFRUSIDE]
[1]
  AC50: > 30 µM
[6]
  AC50: > 30 µM

## CC(=O)O[C@]1(C(C)=O)CC[C@H]2[C@@H]3C=C(C)C4=CC(=O)CC[C@@H]4[C@H]3CC[C@@]21C [NOMEGESTROL ACETATE]
[1]
  AC50: > 30 µM
[4]
  AC50: > 30 µM
[6]
  AC50: > 30 µM

## FC(F)(F)c1ccc(CNc2ccc(Cc3c[nH]c4ncc(Cl)cc34)cn2)cn1 [PEXIDARTINIB]
[1]
  AC50: 27.7 µM

## CN1C(C(=O)Nc2ccccn2)=C(O)c2ccccc2S1(=O)=O [PIROXICAM]
[1]
  AC50: > 30 µM
[4]
  AC50: > 10 µM

## CC[C@@]1(O)C(=O)OCc2c1cc1n(c2=O)Cc2cc3c([N+](=O)[O-])cccc3nc2-1 [RUBITECAN]
[1]
  AC50: > 30 µM

## OC[C@@H](O)[C@@H](O)[C@H](O)[C@@H](O)CO [SORBITOL]
[1]
  AC50: > 30 µM

## OC[C@H]1O[C@@](CO)(O[C@H]2O[C@H](CO)[C@@H](O)[C@H](O)[C@H]2O)[C@@H](O)[C@@H]1O [SUCROSE]
[1]
  AC50: > 30 µM
[4]
  AC50: > 30 µM
[6]
  AC50: > 30 µM

## CC[C@H]1OC(=O)[C@H](C)C(=O)[C@H](C)[C@@H](O[C@@H]2O[C@H](C)C[C@H](N(C)C)[C@H]2O)[C@](C)(OC)C[C@@H](C)C(=O)[C@H](C)[C@H]2N(CCCCn3cnc(-c4cccnc4)c3)C(=O)O[C@]12C [TELITHROMYCIN]
[1]
  AC50: > 30 µM

## COc1cc2nc(N3CCN(C(=O)C4CCCO4)CC3)nc(N)c2cc1OC (centres undefined) [TERAZOSIN]
[1]
  AC50: > 30 µM
[2]
  AC50: > 30 µM
[3]
  AC50: > 30 µM
[4]
  AC50: > 30 µM
[5]
  AC50: > 30 µM
[7]
  AC50: > 10 µM
[8]
  AC50: > 10 µM

## CC(=O)Oc1cc(C(F)(F)F)ccc1C(=O)O [TRIFLUSAL]
[1]
  AC50: > 30 µM

## CCCC(CCC)C(=O)O [VALPROIC ACID]
[1]
  AC50: > 30 µM
[2]
  AC50: > 30 µM
[3]
  AC50: > 30 µM
[4]
  AC50: > 30 µM
[5]
  AC50: > 30 µM
[7]
  AC50: > 10 µM
[8]
  AC50: > 10 µM
